Experimental data reported in publication PMC9551036, “A selective and orally bioavailable VHL-recruiting PROTAC achieves SMARCA2 degradation in vivo” (Nature Communications, 2022).
Values after ≈ are worked out from the molar mass of the structure shown. Values joined by “and” are separate entries in the source; they are usually repeats but may differ in a detail not shown here. Identical values can stand only once. Like-named read-outs stand apart in the source and are kept apart here.

Columns and labels:
[1] = target: T1, PBRM1BD5 (Homo sapiens, UniProt P40337+Q86U86); assay: TR-FRET ternary complex affinity and cooperativity, PBRM1; assay type: binding; details: TR-FRET competition for PBRM1BD5, + VCB; mean ± SD; read-out: TR-FRET Ternary PBRM1BD EC50 (PROTAC + VCB)
T1 construct: GST (TEV site) (N); His6 (TEV site) (N, cleaved yes); made in house; host or cells: PBRM1^BD5: Escherichia coli BL21(DE3)

[2] = Solubility testing; assay type: physicochemical; details: for solubility at 24 h: buffer, kinetic from dmso stock
Procedure: Dilution into a 1:1 mixture of acetonitrile and water was used as reference. After 24 h, the incubations were filtrated, and the filtrate was analyzed by LC-UV.

[3] = system: PBRM1BD5; assay: TR-FRET ternary complex affinity and cooperativity, PBRM1; assay type: binding; details: ratio TR-FRET EC50 / TR-FRET EC50 +VCB measured in the same run, PBRM1BD5
[4] = target: VCB: PROTAC: SMARCA2^BD ternary complex (Homo sapiens, UniProt P40337+P51531); assay: SPR ternary complex measurement, VCB immobilised, 10 µM SMARCA2^BD present; assay type: binding; set-up: P51531-2, residues 1373-1493 with additional N-terminal SM residues; His6 (TEV site) (N, cleaved yes); GST (TEV site) (N, cleaved yes); made in house; host or cells: SMARCA2^BD: Escherichia coli BL21(DE3); details: for Kd: SPR; for alpha: cooperativity, SMARCA2, ratio of KD values measured in the same run
Procedure: SPR data were acquired on Biacore 8K or T200 instruments (Cytiva). Target proteins were immobilised at 25 °C on CM5 chips by amine coupling (EDC/NHS, Cytiva) in HBS-P+ running buffer (pH 7.4), containing 2 mM TCEP. […] The reference surface was subsequently deactivated using 1 M ethanolamine. […] Biotinylated VCB was prepared as previously described[27]: in brief, the complex was mixed 1:1 with EZ-Link NHS–PEG4–biotin (Thermo Scientific) and incubated at room temperature for 1 h. Unreacted NHS-biotin was removed using a PD-10 desalting column (Cytiva) into 20 mM HEPES, pH 7.5, 150 mM sodium chloride and 1 mM DTT. The reference surface was generated by deactivating the EDC/NHS-treated surface with 1 M ethanolamine. All interaction experiments were done at 6 °C in running buffer (20 mM TRIS, pH 8.3, 150 mM potassium chloride, 2 mM magnesium chloride, 2 mM TCEP, 0.005% TWEEN 20, 1% dimethyl sulfoxide). For ternary complex measurements, a sensor chip surface with VCB immobilised was used (preparation as described above). Experiments were run in dual-inject mode with 10 µM SMARCA present during the injection and dissociation phase. Sensorgrams from reference surfaces and blank injections were subtracted from the raw data prior to data analysis using Biacore Insight software. Affinity and binding kinetic parameters were determined by global fitting using the 1:1 interaction model with a term for mass-transport included.

[5] = target: SMARCA2 (Homo sapiens, UniProt P51531); assay: SMARCA2 capillary electrophoresis protein assay in other cell lines (A549, NCI-H1568, HCT116, LU99, HCC-364, HCT-15, HCC4006, SK-N-AS); assay type: cell-based; set-up: endogenous in cells; host or cells: RKO, NCI-H1568, A549, HCT116, LU99, HCC-364, HCT-15, HCC4006, SK-N-AS
Procedure: 130,000–200,000 cells were seeded in 24-well plates and incubated until settled down or overnight. Compounds were dissolved in DMSO and added to cells in indicated concentrations using a digital dispenser following an optional media change. Cells were incubated for 4 or 18 h as indicated. For SMARCA2/4 half-life determination, 150,000 or 200,000 cells were seeded in 24-well plates. The next day, 50 µg/ml cycloheximide (Sigma) was added and cells were incubated for 1–24 h. For SMARCA2/4 re-synthesis measurements, 200,000 cells were seeded in 24-well plates. The next day, 100 nM compound 6 was added for 4 h to degrade SMARCA2/4, and a sample was taken as baseline for normalisation. To allow re-synthesis, a VHL binder (compound 32, 25 or 50 µM) was then added for 3 or 24 h. Medium was removed, cells were washed with PBS and lysed with 80 µl Lysis Buffer (MSD Tris Lysis Buffer (#R60TX-2) + Halt Inhibitor Cocktail (100x) + Benzonase 0.5 µL/ml). Samples were frozen at −80 °C and thawed at room temperature before use. Samples were transferred to a V-bottom plate and insoluble debris was pelleted by centrifugation for 5 min at maximum speed. The supernatant was transferred to a fresh plate. Master Mix and Ladder were prepared according to manufacturer’s instructions for 12–230 kDa Wes Separation Module, 8 × 25 capillary cartridges, Protein Simple #SM-W004 with Anti-Rabbit Detection Module for Wes, Peggy Sue or Sally Sue, Protein Simple #DM-001. 4.8 µl lysate were mixed with 1.2 µl Master Mix to achieve a protein concentration of ~0.5 µg/µl. Antibodies were diluted in Antibody Diluent II (SMARCA2 Sigma #HPA029981 RRID:AB_10602406 1:25–100, SMARCA4 Cell Signalling #49360 clone D1Q7F RRID:AB_2728743 1:15–120 or Abcam #ab110641 clone EPNCIR111A RRID:AB_10861578 1:60, GAPDH Abcam #ab9485 RRID:AB_307275 1:250). Wes plates were prepared and run according to manufacturer’s instructions. Proteins were quantified with accompanying Compass Software. SMARCA2/4 protein levels were normalised to GAPDH. […] Where applicable, curves were fitted using a 4-parametric logistic model.

[6] = pH 4.5, aqueous buffer, pH 4.5, read-out: Solubility pH 4.5
[7] = pH 6.8, aqueous buffer, pH 6.8, read-out: Solubility pH 6.8
[8] = ternary complex with SMARCA2BD, mean ± SD

T1 sequence (Q86U86 645-766): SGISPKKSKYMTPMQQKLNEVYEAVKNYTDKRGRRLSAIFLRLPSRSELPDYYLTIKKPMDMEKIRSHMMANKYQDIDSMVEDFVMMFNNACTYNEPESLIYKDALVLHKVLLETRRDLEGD
T1 sequence (P40337 54-213): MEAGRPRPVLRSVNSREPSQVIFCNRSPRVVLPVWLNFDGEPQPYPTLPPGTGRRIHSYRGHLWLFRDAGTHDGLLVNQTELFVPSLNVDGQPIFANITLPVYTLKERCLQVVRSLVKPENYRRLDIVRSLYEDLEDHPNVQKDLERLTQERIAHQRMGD
T1 sequence (Q15369 17-112 partner): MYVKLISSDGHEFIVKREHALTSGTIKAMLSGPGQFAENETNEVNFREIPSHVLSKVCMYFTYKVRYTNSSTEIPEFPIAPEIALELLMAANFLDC
T1 sequence (Q15370 1-104 partner): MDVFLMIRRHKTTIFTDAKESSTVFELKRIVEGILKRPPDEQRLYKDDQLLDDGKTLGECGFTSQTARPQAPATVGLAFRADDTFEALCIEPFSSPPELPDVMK
VCB: PROTAC: SMARCA2^BD ternary complex, sequence (P40337 54-213): as the sequence (P40337 54-213) above
VCB: PROTAC: SMARCA2^BD ternary complex, sequence (Q15369 17-112 partner limits assumed): as the sequence (Q15369 17-112 partner) above
VCB: PROTAC: SMARCA2^BD ternary complex, sequence (Q15370 1-104 partner limits assumed): as the sequence (Q15370 1-104 partner) above
VCB: PROTAC: SMARCA2^BD ternary complex, sequence (P51531 1373-1493 isoform P51531-2): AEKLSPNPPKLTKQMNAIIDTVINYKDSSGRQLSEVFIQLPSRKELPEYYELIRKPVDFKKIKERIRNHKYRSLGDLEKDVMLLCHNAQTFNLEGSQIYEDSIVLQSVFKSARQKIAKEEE
SMARCA2, sequence (P51531 whole entry): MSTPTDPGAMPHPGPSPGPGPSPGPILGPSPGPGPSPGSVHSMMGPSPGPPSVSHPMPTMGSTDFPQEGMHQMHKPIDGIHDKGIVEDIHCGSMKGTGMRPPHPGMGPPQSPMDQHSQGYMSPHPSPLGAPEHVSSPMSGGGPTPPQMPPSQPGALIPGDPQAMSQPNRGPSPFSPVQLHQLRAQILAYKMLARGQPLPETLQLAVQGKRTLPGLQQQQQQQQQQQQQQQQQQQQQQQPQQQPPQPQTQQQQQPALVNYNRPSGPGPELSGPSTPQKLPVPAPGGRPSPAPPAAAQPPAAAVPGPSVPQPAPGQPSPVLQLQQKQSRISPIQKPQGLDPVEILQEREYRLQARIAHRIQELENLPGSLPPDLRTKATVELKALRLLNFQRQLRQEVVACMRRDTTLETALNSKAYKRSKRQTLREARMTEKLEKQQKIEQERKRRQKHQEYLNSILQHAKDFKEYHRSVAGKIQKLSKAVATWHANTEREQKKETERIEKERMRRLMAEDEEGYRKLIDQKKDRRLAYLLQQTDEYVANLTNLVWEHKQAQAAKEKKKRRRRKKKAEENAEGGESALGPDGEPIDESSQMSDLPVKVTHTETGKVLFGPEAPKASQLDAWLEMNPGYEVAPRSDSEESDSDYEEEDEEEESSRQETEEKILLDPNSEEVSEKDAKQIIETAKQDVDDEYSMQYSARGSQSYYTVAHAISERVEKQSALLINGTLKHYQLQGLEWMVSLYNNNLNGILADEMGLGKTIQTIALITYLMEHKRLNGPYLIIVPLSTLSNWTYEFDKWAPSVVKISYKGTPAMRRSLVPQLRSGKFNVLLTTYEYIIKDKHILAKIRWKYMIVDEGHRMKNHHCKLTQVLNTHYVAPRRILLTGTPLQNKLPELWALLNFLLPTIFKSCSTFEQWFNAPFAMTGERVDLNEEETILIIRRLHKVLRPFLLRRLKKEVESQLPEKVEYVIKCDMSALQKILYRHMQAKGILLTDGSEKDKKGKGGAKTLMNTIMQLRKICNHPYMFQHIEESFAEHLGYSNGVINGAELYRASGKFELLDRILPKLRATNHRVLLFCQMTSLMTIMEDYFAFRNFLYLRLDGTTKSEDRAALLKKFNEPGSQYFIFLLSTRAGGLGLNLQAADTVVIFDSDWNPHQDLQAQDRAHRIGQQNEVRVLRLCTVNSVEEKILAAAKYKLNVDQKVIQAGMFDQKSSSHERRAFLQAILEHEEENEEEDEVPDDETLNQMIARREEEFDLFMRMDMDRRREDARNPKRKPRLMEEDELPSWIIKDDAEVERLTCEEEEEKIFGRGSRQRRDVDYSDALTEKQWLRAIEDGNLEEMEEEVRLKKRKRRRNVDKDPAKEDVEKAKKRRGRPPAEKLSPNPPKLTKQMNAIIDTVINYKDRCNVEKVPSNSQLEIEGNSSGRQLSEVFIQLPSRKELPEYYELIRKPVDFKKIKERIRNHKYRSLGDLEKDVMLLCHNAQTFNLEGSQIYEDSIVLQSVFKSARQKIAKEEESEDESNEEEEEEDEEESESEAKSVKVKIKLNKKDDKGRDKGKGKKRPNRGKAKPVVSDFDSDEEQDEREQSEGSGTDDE

| Compound | EC50 [1] [nM] | solubility at 24 h [2, 6] [µg/mL] | solubility at 24 h [2, 7] [µg/mL] | Solubility pH 4.5 ([2]; pH 4.5) | Solubility pH 6.8 ([2]; pH 6.8) | cooperativity α (PBRM1BD) [3] | Kd [4, 8] [nM] | Kd ([4]; ternary, individual replicates) | alpha [4] | DC50 ([5]; NCI-H1568 (4 h), mean ± SD, read-out: SMARCA2 DC50) [nM] | DC50 ([5]; NCI-H1568, 4h, individual replicates, read-out: NCI-H1568 (4h) SMARCA2 DC50) [nM] |
| --- | --- | --- | --- | --- | --- | --- | --- | --- | --- | --- | --- |
| Nc1cccc2c1c(=O)nc1n(C3CCCC3)c3ccccc3n21 [compound 2] | 959 ± 53 | < 1 | < 1 |  |  |  |  |  |  |  |  |
| CN1CCN(c2nc(=O)c3c(Br)cccc3o2)CC1 [compound 15] |  |  |  | >83.000 ug/mL | >82.000 ug/mL |  |  |  |  |  |  |
| Cc1ncsc1-c1ccc([C@H](CC[C@@H](C)CCN2CCC(c3ccc4c(c3)n(C3CCCC3)c3nc(=O)c5c(Br)cccc5n43)CC2)NC(=O)[C@@H]2C[C@@H](O)CN2C(=O)[C@@H](NC(=O)C2(F)CC2)C(C)(C)C)cc1 [compound 29] | 3 ± 1 |  |  | <1.000 <1.000 ug/mL | <1.000 <1.000 ug/mL | 24.9 ± 2.4 | 20 ± 4 | 15.6 nM and 23 nM and 21.9 nM | 0.6 |  |  |
| CN1CCN(c2nc(=O)c3c(I)cccc3o2)CC1 [compound 16] |  |  |  | >97.000 ug/mL | >97.000 ug/mL |  |  |  |  |  |  |
| CN1CCC(c2ccc3c(c2)n(C2CCCC2)c2nc(=O)c4c(Br)cccc4n32)CC1 [compound 3] | 31 ± 11 | > 110 | > 100 | > 100.000 ug/mL | > 110.000 ug/mL and 94.000 ug/mL |  |  |  |  | > 2500 | > 2500 |
| Cc1ncsc1-c1ccc([C@H](COCCN2CCC(c3ccc4c(c3)n(C3CCCC3)c3nc(=O)c5c(Br)cccc5n43)CC2)NC(=O)[C@@H]2C[C@@H](O)CN2C(=O)[C@@H](NC(=O)C2(N(C)C)CC2)C(C)(C)C)cc1 [compound 26] | 6 ± 2 | 200 (≈ 188 µM) | < 1 |  |  | 4.0 ± 1.2 | 95 ± 37 | 64.1 nM and 136 nM and 86.3 nM | 0.8 |  |  |
| Cc1ncsc1-c1ccc([C@H](COCCCN2CCC(c3ccc4c(c3)n(C3CCCC3)c3nc(=O)c5c(Br)cccc5n43)CC2)NC(=O)[C@@H]2C[C@@H](O)CN2C(=O)[C@@H](NC(=O)C2(F)CC2)C(C)(C)C)cc1 [compound 27] | 3 ± 0.5 |  |  | <1.000 <1.000 ug/mL | <1.000 <1.000 ug/mL | 12.2 ± 2.8 | 26 | 26.7 nM and 25.9 nM and 26.4 nM | 0.5 |  |  |
| Cc1ncsc1-c1ccc(CNC(=O)[C@@H]2C[C@@H](O)CN2C(=O)[C@@H](NC(=O)C2(F)CC2)C(C)(C)C)c(OCCOCCOCCN2CCC(c3ccc4c(c3)n(C3CCCC3)c3nc(=O)c5c(Br)cccc5n43)CC2)c1 [compound 21] | 38 ± 4 |  |  | 200.000 ug/mL and 180.000 ug/mL and 190.000 ug/mL |  | 2.0 ± 0.1 | 58 ± 8 | 49 nM and 65.4 nM and 58.3 nM | 0.4 |  |  |
| Cc1ncsc1-c1ccc(CNC(=O)[C@@H]2C[C@@H](O)CN2C(=O)[C@@H](NC(=O)C2(F)CC2)C(C)(C)C)c(OCCOCCOCCOCCN2CCC(c3ccc4c(c3)n(C3CCCC3)c3nc(=O)c5c(Br)cccc5n43)CC2)c1 [compound 22] | 38 ± 5 |  |  |  |  | 2.6 ± 0.1 | 77 ± 14 | 66.2 nM and 92.4 nM and 71.3 nM | 0.5 |  |  |
| Cc1ncsc1-c1ccc([C@H](COC(C)CN2CCC(c3ccc4c(c3)n(C3CCCC3)c3nc(=O)c5c(Br)cccc5n43)CC2)NC(=O)[C@@H]2C[C@@H](O)CN2C(=O)[C@@H](NC(=O)C2(N(C)C)CC2)C(C)(C)C)cc1 (stereo partly shown) [compound 10] | 8 ± 1 | 210 (≈ 195 µM) | < 1 |  | 2.000 ug/mL | 4.2 ± 0.4 | 159 ± 80 | 74 nM and 233 nM and 171 nM | 0.8 |  |  |
| CN1CCN(c2nc(=O)c3c(Cl)cccc3o2)CC1 [compound 13] |  |  |  | >70.000 ug/mL | >71.000 ug/mL |  |  |  |  |  |  |
| Cc1ncsc1-c1ccc([C@H](CC[C@H](C)CCN2CCC(c3ccc4c(c3)n(C3CCCC3)c3nc(=O)c5c(Br)cccc5n43)CC2)NC(=O)[C@@H]2C[C@H](O)CN2C(=O)[C@@H](NC(=O)C2(F)CC2)C(C)(C)C)cc1 [compound 12] | 78 ± 7 | < 1 | < 1 |  |  | 1.0 ± 0.0 |  |  |  |  |  |
| O=c1nc2n(C3CCCC3)c3ccccc3n2c2cccc(Br)c12 [compound 1] | 131 ± 8 | < 1 | < 1 |  |  |  |  |  |  |  |  |
| Cc1ncsc1-c1ccc(CNC(=O)[C@@H]2C[C@H](O)CN2C(=O)[C@@H](NC(=O)C2(F)CC2)C(C)(C)C)c(OCCN2CCC(c3ccc4c(c3)n(C3CCCC3)c3nc(=O)c5c(Br)cccc5n43)CC2)c1 [compound 19] | 40 ± 1 |  |  | <1.000 ug/mL | <1.000 ug/mL | 1.0 ± 0.1 |  |  |  |  |  |
